In PMC10489938, “Developing an Amide-Spacered Triterpenoid Rhodamine Hybrid of Nano-Molar Cytotoxicity Combined with Excellent Tumor Cell/Non-Tumor Cell Selectivity” (Molecules, 2023) one finds melting point and EC50 data, which are given here for 14 compounds.

Structures can show the parent of a compound that is named as a salt.

One series deals with A375 (melanoma). The series can be described thus: SRB cytotoxicity assay, A375. Format: cell-based, human. The conditions noted are these: Homo sapiens, A-375; Table 2; SRB assay, 72 h of treatment; cut-off 30 μM; read-out: Cytotoxicity (EC50) A375. The procedure: (§1) Sulforhodamine (SRB) assays were performed to evaluate the cytotoxicity of the compounds. First, the cytotoxicity of the different rhodamines was determined; the results of these assays are compiled in Table 1 and Table 2 and depicted in Figure 1.
(§2) Experimental equipment: as previously described biological assays were performed as previously reported employing cell lines obtained from the Department of Oncology [Martin-Luther-University Halle Wittenberg; they were bought from ATCC [2, 4, 7]]. Rhodamine 101 B, as well as asiatic acid, were obtained from local vendors and used as received.
(§3) For the SRB assay and staining experiments: as previously described.

The subject of series [1] is HeLa (cervical adenocarcinoma). The series can be described thus: SRB cytotoxicity assay, HeLa. The conditions noted are these: Homo sapiens, HeLa; Table 2; SRB assay, 72 h of treatment; cut-off 30 μM; read-out: Cytotoxicity (EC50) HeLa. Format: cell-based, human. The procedure:
as §1, §2, §3

The subject of series [2] is HT29 (colorectal carcinoma). The series is described as follows: SRB cytotoxicity assay, HT29. Format: cell-based, human. The conditions noted are these: Homo sapiens, HT-29; Table 2; SRB assay, 72 h of treatment; cut-off 30 μM; read-out: Cytotoxicity (EC50) HT29. The procedure: as §1, §2, §3
Series [3] deals with A2780 (ovarian carcinoma). The series can be described thus: SRB cytotoxicity assay, A2780. In kind it is cell-based, human. The conditions noted are these: Homo sapiens, A2780; Table 2; SRB assay, 72 h of treatment; cut-off 30 μM; read-out: Cytotoxicity (EC50) A2780. On the procedure: as §1, §2, §3
A short description of series [4]: SRB cytotoxicity assay, NIH 3T3. In kind it is cell-based, murine. The conditions noted are these: mouse, NIH 3T3 non-malignant fibroblasts, Table 2, 72 h of treatment, cut-off 30 μM. The procedure:
as §1, §2, §3

Series [5] has as its system MCF7 (breast adenocarcinoma). The series is described as follows: SRB cytotoxicity assay, MCF7. The conditions noted are these: Homo sapiens, MCF7; Table 2; SRB assay, 72 h of treatment; cut-off 30 μM; read-out: Cytotoxicity (EC50) MCF7. Format: cell-based, human. On the procedure: as §1, §2, §3

As to `CC(=O)OC[C@@]1(C)C2CC[C@]3(C)[C@H](CC=C4[C@@H]5[C@@H](C)[C@H](C)CC[C@]5(C(=O)N5CCN(C(=O)c6ccccc6-c6c7ccc(=[N+](C)C)cc-7oc7cc(N(C)C)ccc67)CC5)CC[C@]43C)[C@@]2(C)C[C@@H](OC(C)=O)[C@@H]1OC(C)=O` (stereo partly drawn) (as salt: chloride) [compound 6, (2α,3β,4α)-9-[2-{[4-(2,3,23-Tris(acetyloxy)-urs-12-en-28-oyl)-Piperazinyl]Carbonyl}Phenyl]-3,6-bis(Dimethylamino)-Xanthylium Chloride], the melting point fell in the range of 248 to 250 °C.

In turn, `CCCN(CCC)c1ccc2c(-c3ccccc3C(=O)N3CCN(C(=O)[C@]45CC[C@@H](C)[C@H](C)[C@H]4C4=CC[C@@H]6[C@@]7(C)C[C@@H](OC(C)=O)[C@H](OC(C)=O)[C@@](C)(COC(C)=O)C7CC[C@@]6(C)[C@]4(C)CC5)CC3)c3ccc(=[N+](CCC)CCC)cc-3oc2c1` (stereo partly drawn) (as salt: chloride) [compound 8, (2α,3β,4α)-9-[2-{[4-(2,3,23-Tris(Acetyloxy)-urs-12-en-28-oyl)-Piperazinyl]Carbonyl}Phenyl]-3,6-Bis(Dipropylamino)-Xanthylium Chloride] showed a melting point of 226 to 228 °C.

Compound `CCCCN(CCCC)c1ccc2c(-c3ccccc3C(=O)N3CCN(C(=O)[C@]45CC[C@@H](C)[C@H](C)[C@H]4C4=CC[C@@H]6[C@@]7(C)C[C@@H](OC(C)=O)[C@H](OC(C)=O)[C@@](C)(COC(C)=O)C7CC[C@@]6(C)[C@]4(C)CC5)CC3)c3ccc(=[N+](CCCC)CCCC)cc-3oc2c1` (stereo partly drawn) (as salt: chloride) [compound 9, (2α,3β,4α)-9-[2-{[4-(2,3,23-Tris(Acetyloxy)-urs-12-en-28-oyl)-Piperazinyl]Carbonyl}Phenyl]-3,6-Bis(Dibutylamino)-Xanthylium Chloride] gave a melting point of 222 to 226 °C.

Consider `CC(=O)OC[C@@]1(C)C2CC[C@]3(C)[C@H](CC=C4[C@@H]5[C@@H](C)[C@H](C)CC[C@]5(C(=O)N5CCN(C(=O)c6ccccc6C6=c7cc8c9c(c7Oc7c6cc6c%10c7CCCN%10CCC6)CCC[N+]=9CCC8)CC5)CC[C@]43C)[C@@]2(C)C[C@@H](OC(C)=O)[C@@H]1OC(C)=O` (stereo partly shown) (as salt: chloride) [compound 10], for which the melting point fell in the range of 244 to 247 °C.

`CC(=O)OC[C@@]1(C)C2CC[C@]3(C)[C@H](CC=C4[C@@H]5[C@@H](C)[C@H](C)CC[C@]5(C(=O)N5CCCN(C(=O)c6ccccc6-c6c7ccc(=[N+](C)C)cc-7oc7cc(N(C)C)ccc67)CC5)CC[C@]43C)[C@@]2(C)C[C@@H](OC(C)=O)[C@@H]1OC(C)=O` (stereo partly drawn) (as salt: chloride) [compound 11, (2α,3β,4α)-9-[2-{[4-(2α,3β,23-Tris(Acetyloxy)-urs-12-en-28-oyl)-Homopiperazinyl]Carbonyl}Phenyl]-3,6-Bis(Dimethylamino)-Xanthylium Chloride] registered a melting point of 258 to 260 °C.

The compound `CCCN(CCC)c1ccc2c(-c3ccccc3C(=O)N3CCCN(C(=O)[C@]45CC[C@@H](C)[C@H](C)[C@H]4C4=CC[C@@H]6[C@@]7(C)C[C@@H](OC(C)=O)[C@H](OC(C)=O)[C@@](C)(COC(C)=O)C7CC[C@@]6(C)[C@]4(C)CC5)CC3)c3ccc(=[N+](CCC)CCC)cc-3oc2c1` (stereo partly drawn) (as salt: chloride) [compound 13, (2α,3β,4α)-9-[2-{[4-(2α,3β,23-Tris(Acetyloxy)-urs-12-en-28-oyl)-Homopiperazinyl]Carbonyl}Phenyl]-3,6-Bis(Dipropylamino)-Xanthylium Chloride] registered a melting point of 224 to 225 °C.

Consider `CCCCN(CCCC)c1ccc2c(-c3ccccc3C(=O)N3CCCN(C(=O)[C@]45CC[C@@H](C)[C@H](C)[C@H]4C4=CC[C@@H]6[C@@]7(C)C[C@@H](OC(C)=O)[C@H](OC(C)=O)[C@@](C)(COC(C)=O)C7CC[C@@]6(C)[C@]4(C)CC5)CC3)c3ccc(=[N+](CCCC)CCCC)cc-3oc2c1` (stereo partly drawn) (as salt: chloride) [compound 14, (2α,3β,4α)-9-[2-{[4-(2α,3β,23-Tris(Acetyloxy)-urs-12-en-28-oyl)-Homopiperazinyl]Carbonyl}Phenyl]-3,6-Bis(Dibutylamino)-Xanthylium Chloride], for which the melting point lay within 210 to 213 °C.

Turning to `CC(=O)OC[C@@]1(C)C2CC[C@]3(C)[C@H](CC=C4[C@@H]5[C@@H](C)[C@H](C)CC[C@]5(C(=O)N5CCCN(C(=O)c6ccccc6C6=c7cc8c9c(c7Oc7c6cc6c%10c7CCCN%10CCC6)CCC[N+]=9CCC8)CC5)CC[C@]43C)[C@@]2(C)C[C@@H](OC(C)=O)[C@@H]1OC(C)=O` (stereo partly shown) (as salt: chloride) [compound 15], the melting point lay within 287 to 289 °C.

Consider `CC(=O)OC[C@@]1(C)C2CC[C@]3(C)[C@H](CC=C4[C@@H]5[C@@H](C)[C@H](C)CC[C@]5(C(=O)N5CCCN(C(=O)c6ccccc6-c6c7ccc(=[N+](C)C)cc-7oc7cc(N(C)C)ccc67)CCC5)CC[C@]43C)[C@@]2(C)C[C@@H](OC(C)=O)[C@@H]1OC(C)=O` (stereo partly drawn) (as salt: chloride) [compound 16, (2α,3β,4α)-9-[2-[{4-(2α,3β,23-Tris(Acetyloxy)-urs-12-en-28-oyl)-1,5-Diazocan-1-Yl]Carbonyl}Phenyl]-3,6-Bis(Dimethylamino)-Xanthylium Chloride], for which the melting point is 224 to 226 °C.

`CCN(CC)c1ccc2c(-c3ccccc3C(=O)N3CCCN(C(=O)[C@]45CC[C@@H](C)[C@H](C)[C@H]4C4=CC[C@@H]6[C@@]7(C)C[C@@H](OC(C)=O)[C@H](OC(C)=O)[C@@](C)(COC(C)=O)C7CC[C@@]6(C)[C@]4(C)CC5)CCC3)c3ccc(=[N+](CC)CC)cc-3oc2c1` (stereo partly drawn) (as salt: chloride) [compound 17, (2α,3β,4α)-9-[2-[{4-(2α,3β,23-Tris(Acetyloxy)-urs-12-en-28-oyl)-1,5-Diazocan-1-Yl]Carbonyl}Phenyl]-3,6-Bis(Diethylamino)-Xanthylium Chloride] displayed a melting point of 222 to 227 °C.

Turning to `CC(=O)OC[C@@]1(C)C2CC[C@]3(C)[C@H](CC=C4[C@@H]5[C@@H](C)[C@H](C)CC[C@]5(C(=O)N5CCCN(C(=O)c6ccccc6-c6c7ccc(=[N+](C)C)cc-7oc7cc(N(C)C)ccc67)CCC5)CC[C@]43C)[C@@]2(C)C[C@@H](OC(C)=O)[C@@H]1OC(C)=O` (stereo partly drawn) [compound 16, (2α,3β,4α)-9-[2-[{4-(2α,3β,23-Tris(Acetyloxy)-urs-12-en-28-oyl)-1,5-Diazocan-1-Yl]Carbonyl}Phenyl]-3,6-Bis(Dimethylamino)-Xanthylium Chloride], the EC50 in the series on A375 (melanoma) stood at 0.07 ± 0.01 µM; in series [1] it was 0.5 ± 0.2 µM; in series [2], 0.05 ± 0.02 µM; in series [3] it was 0.006 ± 0.001 µM; in series [5] it was 0.05 ± 0.01 µM. Further, in series [4], the response was half-maximal at 0.4 ± 0.09 µM (EC50 at 72 h).

In the case of `CCN(CC)c1ccc2c(-c3ccccc3C(=O)N3CCCN(C(=O)[C@]45CC[C@@H](C)[C@H](C)[C@H]4C4=CC[C@@H]6[C@@]7(C)C[C@@H](OC(C)=O)[C@H](OC(C)=O)[C@@](C)(COC(C)=O)C7CC[C@@]6(C)[C@]4(C)CC5)CCC3)c3ccc(=[N+](CC)CC)cc-3oc2c1` (stereo partly drawn) [compound 17, (2α,3β,4α)-9-[2-[{4-(2α,3β,23-Tris(Acetyloxy)-urs-12-en-28-oyl)-1,5-Diazocan-1-Yl]Carbonyl}Phenyl]-3,6-Bis(Diethylamino)-Xanthylium Chloride], the EC50 was 0.03 ± 0.01 µM in the series with A375 (melanoma); 0.06 ± 0.01 µM in series [1]; 0.03 ± 0.01 µM in series [2]; 0.007 ± 0.002 µM in series [3]; 0.025 ± 0.02 µM in series [5]. Further, the response in series [4] was half-maximal at 0.45 ± 0.02 µM (EC50 at 72 h).

Take `CCCN(CCC)c1ccc2c(-c3ccccc3C(=O)N3CCCN(C(=O)[C@]45CC[C@@H](C)[C@H](C)[C@H]4C4=CC[C@@H]6[C@@]7(C)C[C@@H](OC(C)=O)[C@H](OC(C)=O)[C@@](C)(COC(C)=O)C7CC[C@@]6(C)[C@]4(C)CC5)CCC3)c3ccc(=[N+](CCC)CCC)cc-3oc2c1` (stereo partly drawn) [compound 18, (2α,3β,4α)-9-[2-[{4-(2α,3β,23-Tris(Acetyloxy)-urs-12-en-28-oyl)-1,5-Diazocan-1-Yl]Carbonyl}Phenyl]-3,6-Bis(Dipropylamino)-Xanthylium Chloride]: the EC50 in the series with A375 (melanoma) is 0.0074 ± 0.0009 µM; in series [1], 0.07 ± 0.02 µM; in series [2] it was 0.012 ± 0.004 µM; in series [3], 0.0019 ± 0.0002 µM; in series [5], 0.017 ± 0.002 µM. The compound further yielded an EC50 at 72 h in series [4] of 0.36 ± 0.05 µM.

For the compound `CCCCN(CCCC)c1ccc2c(-c3ccccc3C(=O)N3CCCN(C(=O)[C@]45CC[C@@H](C)[C@H](C)[C@H]4C4=CC[C@@H]6[C@@]7(C)C[C@@H](OC(C)=O)[C@H](OC(C)=O)[C@@](C)(COC(C)=O)C7CC[C@@]6(C)[C@]4(C)CC5)CCC3)c3ccc(=[N+](CCCC)CCCC)cc-3oc2c1` (stereo partly drawn) [compound 19, (2α,3β,4α)-9-[2-[{4-(2α,3β,23-Tris(Acetyloxy)-urs-12-en-28-oyl)-1,5-Diazocan-1-Yl]Carbonyl}Phenyl]-3,6-Bis(Dibutylamino)-Xanthylium Chloride], the EC50 in the series with A375 (melanoma) was found to be 0.03 ± 0.01 µM; in series [1] it was 0.17 ± 0.08 µM; in series [2] it was 0.03 ± 0.01 µM; in series [3], 0.006 ± 0.002 µM; in series [5] it was 0.04 ± 0.005 µM. Further, the EC50 at 72 h in series [4] was 0.24 ± 0.08 µM.
